Key:
PTPN2 [1] = target: T1, PTPN2 (Homo sapiens, UniProt P17706); experiment: HiBiT-Degradation 293T.109 PTPN2 (Nano-Glo HiBiT Lytic Assay); type: cell-based; settings: 293T.109 (HiBiT-PTPN2) cells, 24.0 hours
T1 construct: expressed in transfected cells; host or cells: 293T (293T.109 HiBiT-PTPN2 line; parental 293T WT from ATCC)
T1 sequence (P17706 1-415): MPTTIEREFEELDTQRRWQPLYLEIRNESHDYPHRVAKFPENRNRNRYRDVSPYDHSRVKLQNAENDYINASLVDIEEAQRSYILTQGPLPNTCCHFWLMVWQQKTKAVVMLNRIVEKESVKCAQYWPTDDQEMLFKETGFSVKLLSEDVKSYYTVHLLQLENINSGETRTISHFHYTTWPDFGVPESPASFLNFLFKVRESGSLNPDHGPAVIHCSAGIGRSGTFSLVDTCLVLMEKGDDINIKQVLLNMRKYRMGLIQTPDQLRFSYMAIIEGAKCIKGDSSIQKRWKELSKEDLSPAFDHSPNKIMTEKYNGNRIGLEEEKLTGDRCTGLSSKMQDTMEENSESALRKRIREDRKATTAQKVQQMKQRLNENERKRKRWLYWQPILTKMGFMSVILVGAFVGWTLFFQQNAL
How it was run: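 Luminescence from a lytic HiBiT read gave PTPN2 levels after 24 h compound exposure at 37° C. Compounds were tested at 11 half-log points from a 10 μM top concentration, in duplicate. The cells were 293T engineered with an N-terminal HiBiT–PTPN2 fusion, plated at 5000 per well, with untreated wells as negative control and no-reagent wells as positive control.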

PTPN2 [2] = experiment: HiBiT-Degradation B16F10.4 PTPN2; type: cell-based; settings: B16F10.4 cells, 24.0 hours

| Compound | DC50 (PTPN2 [1]) [µM] | DC50 (PTPN2 [2]) [µM] |
| --- | --- | --- |
| Cn1c(=O)n(C2CCC(=O)NC2=O)c2ccc(C3CCN(CC(=O)N4CC(Oc5ccc6cc(O)c(N7CC(=O)NS7(=O)=O)c(F)c6c5)C4)CC3)cc21 (stereo not drawn) [Example 112, 3-[5-[1-[2-[3-[[8-fluoro-6-hydroxy-7-(1,1,4-trioxo-1,2,5-thiadiazolidin-2-yl)-2-naphthyl]oxy]azetidin-1-yl]-2-oxo-ethyl]-4-piperidyl]-3-methyl-2-oxo-benzimidazol-1-yl]piperidine-2,6-dione] | 0.01 to 0.05 | 0.05 to 0.2 |
| O=C1CCC(Nc2ccc(C3CCN(CC(=O)Nc4ccc5c(F)c(N6CC(=O)NS6(=O)=O)c(O)cc5c4)CC3(F)F)cc2)C(=O)N1 (stereo not drawn) [Example 113, 2-[4-[4-[(2,6-dioxo-3-piperidyl)amino]phenyl]-3,3-difluoro-1-piperidyl]-N-[5-fluoro-7-hydroxy-6-(1,1,4-trioxo-1,2,5-thiadiazolidin-2-yl)-2-naphthyl]acetamide] | 0.2 to 1 | 0.2 to 1 |
| Cn1nc(C2CCC(=O)NC2=O)c2ccc(C3CCN(CC(=O)Nc4ccc5c(F)c(N6CC(=O)NS6(=O)=O)c(O)cc5c4)CC3(F)F)cc21 (stereo not drawn) [Example 114, N-(6-(1,1-dioxido-4-oxo-1,2,5-thiadiazolidin-2-yl)-5-fluoro-7-hydroxynaphthalen-2-yl)-2-(4-(3-(2,6-dioxopiperidin-3-yl)-1-methyl-1H-indazol-6-yl)-3,3-difluoropiperidin-1-yl)acetamide] | 0.05 to 0.2 | 0.05 to 0.2 |
| Cn1nc(C2CCC(=O)NC2=O)c2ccc(C3CCN(C4CC(C(=O)Nc5ccc6c(F)c(N7CC(=O)NS7(=O)=O)c(O)cc6c5)C4)CC3(F)F)cc21 (stereo not drawn) [Example 117, N-(6-(1,1-dioxido-4-oxo-1,2,5-thiadiazolidin-2-yl)-5-fluoro-7-hydroxynaphthalen-2-yl)-3-(4-(3-(2,6-dioxopiperidin-3-yl)-1-methyl-1H-indazol-6-yl)-3,3-difluoropiperidin-1-yl)cyclobutanecarboxamide] | 0.01 to 0.05 | 0.05 to 0.2 |
| Cn1c(=O)n(C2CCC(=O)NC2=O)c2ccc(C3CCN(CC(=O)N4CC=C(c5ccc6cc(O)c(N7CC(=O)NS7(=O)=O)c(F)c6c5)CC4)CC3)cc21 (stereo not drawn) [Example 119, 3-[5-[1-[2-[4-[8-fluoro-6-hydroxy-7-(1,1,4-trioxo-1,2,5-thiadiazolidin-2-yl)-2-naphthyl]-3,6-dihydro-2H-pyridin-1-yl]-2-oxo-ethyl]-4-piperidyl]-3-methyl-2-oxo-benzimidazol-1-yl]piperidine-2,6-dione] | 0.01 to 0.05 | 0.05 to 0.2 |
| Cn1c(=O)n(C2CCC(=O)NC2=O)c2ccc(C3CCN(CCN4CC=C(c5ccc6cc(O)c(N7CC(=O)NS7(=O)=O)c(F)c6c5)CC4)CC3)cc21 (stereo not drawn) [Example 121, 3-[5-[1-[2-[4-[8-fluoro-6-hydroxy-7-(1,1,4-trioxo-1,2,5-thiadiazolidin-2-yl)-2-naphthyl]-3,6-dihydro-2H-pyridin-1-yl]ethyl]-4-piperidyl]-3-methyl-2-oxo-benzimidazol-1-yl]piperidine-2,6-dione] | 0.01 to 0.05 | 0.05 to 0.2 |
| Cn1c(=O)n(C2CCC(=O)NC2=O)c2ccc(C3CCN(CCn4cc(-c5ccc6c(F)c(N7CC(=O)NS7(=O)=O)c(O)cc6c5)cn4)CC3)cc21 (stereo not drawn) [Example 122, 3-[5-[1-[2-[4-[5-fluoro-7-hydroxy-6-(1,1,4-trioxo-1,2,5-thiadiazolidin-2-yl)-2-naphthyl]pyrazol-1-yl]ethyl]-4-piperidyl]-3-methyl-2-oxo-benzimidazol-1-yl]piperidine-2,6-dione] | 0.01 to 0.05 | 0.2 to 1 |
| Cn1c(=O)n(C2CCC(=O)NC2=O)c2ccc(N3CCC(CC(=O)N4CCC(c5ccc6cc(O)c(N7CC(=O)NS7(=O)=O)c(F)c6c5)CC4)CC3)cc21 (stereo not drawn) [Example 124, 3-[5-[4-[2-[4-[8-fluoro-6-hydroxy-7-(1,1,4-trioxo-1,2,5-thiadiazolidin-2-yl)-2-naphthyl]-1-piperidyl]-2-oxo-ethyl]-1-piperidyl]-3-methyl-2-oxo-benzimidazol-1-yl]piperidine-2,6-dione] | 0.2 to 1 | 0.2 to 1 |
| Cn1c(=O)n(C2CCC(=O)NC2=O)c2ccc(Nc3ccc(C(=O)NCCOc4ccc5cc(O)c(N6CC(=O)NS6(=O)=O)c(F)c5c4)cc3)cc21 (stereo not drawn) [Example 126, 4-[[1-(2,6-dioxo-3-piperidyl)-3-methyl-2-oxo-benzimidazol-5-yl]amino]-N-[2-[[8-fluoro-6-hydroxy-7-(1,1,4-trioxo-1,2,5-thiadiazolidin-2-yl)-2-naphthyl]oxy]ethyl]benzamide] | 0.2 to 1 | 0.2 to 1 |

Now from value to molecule:

| DC50 (PTPN2 [1]) [µM] | DC50 (PTPN2 [2]) [µM] | Compound |
| --- | --- | --- |
| 0.2 to 1 | 0.2 to 1 | Cn1c(=O)n(C2CCC(=O)NC2=O)c2ccc(C3CCN(CC(=O)N4CC(c5ccc6c(F)c(N7CC(=O)NS7(=O)=O)c(O)cc6c5)C4)CC3)cc21 (stereo not drawn) [Example 115, 3-(5-(1-(2-(3-(6-(1,1-dioxido-4-oxo-1,2,5-thiadiazolidin-2-yl)-5-fluoro-7-hydroxynaphthalen-2-yl)azetidin-1-yl)-2-oxoethyl)piperidin-4-yl)-3-methyl-2-oxo-2,3-dihydro-1H-benzo[d]imidazol-1-yl)piperidine-2,6-dione] |
| 0.05 to 0.2 | 0.05 to 0.2 | Cn1c(=O)n(C2CCC(=O)NC2=O)c2ccc(-c3ccc(CCC(=O)Nc4ccc5c(F)c(N6CC(=O)NS6(=O)=O)c(O)cc5c4)cc3)cc21 (stereo not drawn) [Example 116, N-(6-(1,1-dioxido-4-oxo-1,2,5-thiadiazolidin-2-yl)-5-fluoro-7-hydroxynaphthalen-2-yl)-3-(4-(1-(2,6-dioxopiperidin-3-yl)-3-methyl-2-oxo-2,3-dihydro-1H-benzo[d]imidazol-5-yl)phenyl)propanamide] |
| 0.05 to 0.2 | 0.01 to 0.05 | Cn1c(=O)n(C2CCC(=O)NC2=O)c2ccc(-c3ccc(CC(=O)Nc4ccc5c(F)c(N6CC(=O)NS6(=O)=O)c(O)cc5c4)cc3F)cc21 (stereo not drawn) [Example 118, N-(6-(1,1-dioxido-4-oxo-1,2,5-thiadiazolidin-2-yl)-5-fluoro-7-hydroxynaphthalen-2-yl)-2-(4-(1-(2,6-dioxopiperidin-3-yl)-3-methyl-2-oxo-2,3-dihydro-1H-benzo[d]imidazol-5-yl)-3-fluorophenyl)acetamide] |
| 0.01 to 0.05 | 0.05 to 0.2 | Cn1c(=O)n(C2CCC(=O)NC2=O)c2ccc(C3CCN(CC(=O)N4CCC(c5ccc6cc(O)c(N7CC(=O)NS7(=O)=O)c(F)c6c5)CC4)CC3)cc21 (stereo not drawn) [Example 120, 3-[5-[1-[2-[4-[8-fluoro-6-hydroxy-7-(1,1,4-trioxo-1,2,5-thiadiazolidin-2-yl)-2-naphthyl]-1-piperidyl]-2-oxo-ethyl]-4-piperidyl]-3-methyl-2-oxo-benzimidazol-1-yl]piperidine-2,6-dione] |
| 0.01 to 0.05 | 0.05 to 0.2 | Cn1c(=O)n(C2CCC(=O)NC2=O)c2ccc(C3CCN(CCN4CCC(c5ccc6cc(O)c(N7CC(=O)NS7(=O)=O)c(F)c6c5)CC4)CC3)cc21 (stereo not drawn) [Example 123, 3-[5-[1-[2-[4-[8-fluoro-6-hydroxy-7-(1,1,4-trioxo-1,2,5-thiadiazolidin-2-yl)-2-naphthyl]-1-piperidyl]ethyl]-4-piperidyl]-3-methyl-2-oxo-benzimidazol-1-yl]piperidine-2,6-dione] |
| 0.05 to 0.2 | 0.2 to 1 | Cn1c(=O)n(C2CCC(=O)NC2=O)c2ccc(C3CCN(Cc4cnn(-c5ccc6cc(O)c(N7CC(=O)NS7(=O)=O)c(F)c6c5)c4)CC3)cc21 (stereo not drawn) [Example 125, 3-[5-[1-[[1-[8-fluoro-6-hydroxy-7-(1,1,4-trioxo-1,2,5-thiadiazolidin-2-yl)-2-naphthyl]pyrazol-4-yl]methyl]-4-piperidyl]-3-methyl-2-oxo-benzimidazol-1-yl]piperidine-2,6-dione] |
| 0.05 to 0.2 | 0.2 to 1 | Cn1c(=O)n(C2CCC(=O)NC2=O)c2ccc(N3CCC(CC(=O)N4CC=C(c5ccc6cc(O)c(N7CC(=O)NS7(=O)=O)c(F)c6c5)CC4)CC3)cc21 (stereo not drawn) [Example 127, 3-[5-[4-[2-[4-[8-fluoro-6-hydroxy-7-(1,1,4-trioxo-1,2,5-thiadiazolidin-2-yl)-2-naphthyl]-3,6-dihydro-2H-pyridin-1-yl]-2-oxo-ethyl]-1-piperidyl]-3-methyl-2-oxo-benzimidazol-1-yl]piperidine-2,6-dione] |
| 0.05 to 0.2 | 0.2 to 1 | Cn1c(=O)n(C2CCC(=O)NC2=O)c2ccc(C3CCN(CCCCOc4ccc5cc(O)c(N6CC(=O)NS6(=O)=O)c(F)c5c4)CC3)cc21 (stereo not drawn) [Example 128, 3-[5-[1-[4-[[8-fluoro-6-hydroxy-7-(1,1,4-trioxo-1,2,5-thiadiazolidin-2-yl)-2-naphthyl]oxy]butyl]-4-piperidyl]-3-methyl-2-oxo-benzimidazol-1-yl]piperidine-2,6-dione] |
| 0.05 to 0.2 | 0.05 to 0.2 | Cn1c(=O)n(C2CCC(=O)NC2=O)c2ccc(C3CCN(CC(=O)Nc4ccc5c(F)c(N6CC(=O)NS6(=O)=O)c(O)cc5c4)CC3(F)F)cc21 (stereo not drawn) [Example 129, 2-[4-[1-(2,6-dioxo-3-piperidyl)-3-methyl-2-oxo-benzimidazol-5-yl]-3,3-difluoro-1-piperidyl]-N-[5-fluoro-7-hydroxy-6-(1,1,4-trioxo-1,2,5-thiadiazolidin-2-yl)-2-naphthyl]acetamide] |
